In patent US4724233A, “Therapeutical application of phosphonylmethoxyalkyl adenines” (Stichting Rega VZW, priority 1985, dated 1988):
In brackets after ≈: the same amount, converted by molar mass. Where two headings read alike, the source gives them in different places.

Assays:
Reovirus = test: inhibition of cytopathic effect of reovirus; type: cell-based; conditions: Table 3, Vero B cells; for EC50: Reovirus sp., read-out: MIC50
Parainfluenza 3 = test: inhibition of cytopathic effect of parainfluenza 3; type: cell-based; conditions: Table 3, Vero B cells; for EC50: read-out: MIC50
Sindbis = test: inhibition of cytopathic effect of Sindbis; type: cell-based; conditions: Table 3, Vero B cells; for EC50: read-out: MIC50
Coxsackie B4 = test: inhibition of cytopathic effect of Coxsackie B4; type: cell-based; conditions: Table 3, Vero B, HeLa cells; for EC50: Enterovirus B, B4, read-out: MIC50
Polio 1 = test: microbe, parasite or virus in culture; type: cell-based; conditions: for EC50: HeLa, read-out: MIC50
Measles = test: inhibition of cytopathic effect of measles; type: cell-based; conditions: Table 3, Vero Flow cells; for EC50: Measles morbillivirus, read-out: MIC50
Vesicular stomatitis = test: microbe, parasite or virus in culture; type: cell-based; conditions: for EC50: read-out: MIC50
Vaccinia = test: microbe, parasite or virus in culture; type: cell-based; conditions: for EC50: Orthopoxvirus vaccinia, PRK, read-out: MIC50
Herpes simplex I (KOS) = test: inhibition of cytopathic effect of herpes simplex 1 (KOS); type: cell-based, herpes simplex virus type 1; conditions: PRK cells; for EC50: Human alphaherpesvirus 1, read-out: MIC50
Herpes simplex 2 (G) = test: inhibition of cytopathic effect of herpes simplex 2 (G); type: cell-based, herpes simplex virus type 2; conditions: PRK cells; for EC50: Human alphaherpesvirus 2, PRK, read-out: MIC50
Moloney sarcoma = test: inhibition of Moloney sarcoma virus; type: cell-based, Moloney mouse sarcoma virus; conditions: Table 3, MO cells
HSV-1 (strain) McIntyre = test: inhibition of cytopathic effect of HSV-1 strain McIntyre; type: cell-based, herpes simplex virus type 1; conditions: Table 4, HSV-1 McIntyre, PRK cells; for EC50: Human alphaherpesvirus 1, read-out: MIC50
HSV-1 (strain) F = test: inhibition of cytopathic effect of HSV-1 strain F; type: cell-based, herpes simplex virus type 1; conditions: Table 4, HSV-1 F, PRK cells; for EC50: Human alphaherpesvirus 1, read-out: MIC50
[1] = tested on: HSV-1 (strain) TK^- C1101; test: inhibition of cytopathic effect of HSV-1 TK- strain C1101; type: cell-based, herpes simplex virus type 1; conditions: for EC50: Human alphaherpesvirus 1, PRK, read-out: MIC50
HSV-2 (strain) 196 = test: inhibition of cytopathic effect of HSV-2 strain 196; type: cell-based, herpes simplex virus type 2; conditions: Table 4, HSV-2 196, PRK cells; for EC50: Human alphaherpesvirus 2, read-out: MIC50
HSV-2 (strain) Lyons = test: inhibition of cytopathic effect of HSV-2 strain Lyons; type: cell-based, herpes simplex virus type 2; conditions: Table 4, HSV-2 Lyons, PRK cells; for EC50: Human alphaherpesvirus 2, read-out: MIC50
[2] = tested on: herpes simplex virus type 1 (HSV-1) (strain KOS); type: cell-based; conditions: PRK cells
vaccinia virus (VV) = type: cell-based; conditions: PRK cells, average of two determinations
in vitro = conditions: rabbit, prk cells
[3] = antimetabolic activity: incorporation of 3H-labeled precursors into primary rabbit kidney cells; conditions: rabbit, prk cells
PRK cells [4] = conditions: 72 h
PRK cells [5] = test: antimetabolic activity: incorporation of 3H-labeled precursors into primary rabbit kidney cells
[6] = 48 h, 10 μg/ml (value in parentheses)
[7] = ID50 Leu incorporation, (3H-4,5)Leu
[8] = ID50 Urd incorporation, (3H-5)Urd
[9] = ID50 dThd incorporation, (3H-methyl) dThd
[10] = ID50 dUrd incorporation, (3H-1',2')dUrd

Nc1ncnc2c1ncn2CC(O)COCP(=O)(O)O (racemic) [No. 2, (RS)-9-(2-hydroxy-3-phosphonylmethoxypropyl)-adenine]
EC50 (Reovirus): > 200 µg/mL | EC50 (Parainfluenza 3): > 200 µg/mL | EC50 (Sindbis): > 400 µg/mL | EC50 (Coxsackie B4): > 400 µg/mL | EC50 (Polio 1): > 400 µg/mL | EC50 (Measles): > 20 µg/mL | EC50 (Vesicular stomatitis): > 400 µg/mL | EC50 (Vaccinia): 0.3 to 1 µg/mL (≈ 0.989 to 3.3 µM) | EC50 (Herpes simplex I (KOS); Table 3): 2 to 10 µg/mL (≈ 6.6 to 33 µM) | MIC50 (Herpes simplex I (KOS); Table 4, HSV-1 KOS): 2 to 10 µg/mL | EC50 (Herpes simplex 2 (G); Table 3): 10 to 15 µg/mL (≈ 33 to 49.5 µM) | EC50 (Herpes simplex 2 (G); Table 4, HSV-2 G): 10 to 15 µg/mL (≈ 33 to 49.5 µM) | EC50 (Moloney sarcoma; Mus musculus, read-out: MIC50): 4.5 µg/mL (≈ 14.8 µM) | EC50 (HSV-1 (strain) McIntyre): 10 to 15 µg/mL (≈ 33 to 49.5 µM) | EC50 (HSV-1 (strain) F): 10 to 15 µg/mL (≈ 33 to 49.5 µM) | EC50 [1]: 7 µg/mL (≈ 23.1 µM) | EC50 (HSV-2 (strain) 196): 10 to 15 µg/mL (≈ 33 to 49.5 µM) | EC50 (HSV-2 (strain) Lyons): 10 to 15 µg/mL (≈ 33 to 49.5 µM) | Titer of HSV-1 ([2]; 24 h, 100 μg/ml): < 1.3 log10 PFU/ml | Titer of HSV-1 [2, 6]: < 6.0 log10 PFU/ml | Titer of HSV-1 ([2]; 48 h, 100 μg/ml): < 1.3 log10 PFU/ml | Titer of VV (vaccinia virus (VV); 1 h, 100 μg/ml): 2.2 log10 PFU/ml | Titer of VV (vaccinia virus (VV); 24 h, 100 μg/ml): 2.2 log10 PFU/ml | Titer of VV (vaccinia virus (VV); [6]): < 1.3 log10 PFU/ml | Titer of VV (vaccinia virus (VV); 48 h, 100 μg/ml): 2.0 log10 PFU/ml | Titer of VV (vaccinia virus (VV); 72 h, 100 μg/ml): 1.8 log10 PFU/ml | MCC at 72 h (in vitro): > 400 µg/mL | IC50 [3, 7]: > 400 µg/mL | IC50 [3, 8]: > 400 µg/mL | IC50 [3, 9]: 280 µg/mL (≈ 923 µM) | IC50 [3, 10]: > 400 µg/mL

Nc1ncnc2c1ncn2C[C@H](O)COCP(=O)(O)O (racemic) [No. 3, (RS)-9-(2-hydroxy-3-phosphonylmethoxypropyl)-adenine]
EC50 (Reovirus): > 400 µg/mL | EC50 (Parainfluenza 3): > 400 µg/mL | EC50 (Sindbis): > 400 µg/mL | EC50 (Coxsackie B4): > 400 µg/mL | EC50 (Polio 1): > 400 µg/mL | EC50 (Measles): > 400 µg/mL | EC50 (Vesicular stomatitis): > 400 µg/mL | EC50 (Vaccinia): 15 to 30 µg/mL (≈ 49.5 to 98.9 µM) | EC50 (Herpes simplex I (KOS); Table 3): 70 to 150 µg/mL (≈ 231 to 495 µM) | MIC50 (Herpes simplex I (KOS); Table 4, HSV-1 KOS): 70 to 150 µg/mL | EC50 (Herpes simplex 2 (G); Table 3): 30 to 150 µg/mL (≈ 98.9 to 495 µM) | EC50 (Herpes simplex 2 (G); Table 4, HSV-2 G): 30 to 150 µg/mL (≈ 98.9 to 495 µM) | EC50 (HSV-1 (strain) McIntyre): 150 µg/mL (≈ 495 µM) | EC50 (HSV-1 (strain) F): 70 to 150 µg/mL (≈ 231 to 495 µM) | EC50 [1]: 30 to 40 µg/mL (≈ 98.9 to 132 µM) | EC50 (HSV-2 (strain) 196): 70 to 150 µg/mL (≈ 231 to 495 µM) | EC50 (HSV-2 (strain) Lyons): 30 to 100 µg/mL (≈ 98.9 to 330 µM) | MCC at 72 h (in vitro): ≥ 200 µg/mL | IC50 [3, 7]: > 400 µg/mL | IC50 [3, 8]: > 400 µg/mL | IC50 [3, 9]: > 400 µg/mL | IC50 [3, 10]: > 400 µg/mL

Nc1ncnc2c1ncn2CC1COP(=O)(O)CO1 (racemic) [No. 5, 2',3'-cyclic O-phosphonylmethyl ether of (RS)-9-(2,3-dihydroxypropyl)adenine]
MIC50 (Reovirus): > 200 µg/mL | MIC50 (Parainfluenza 3): > 400 µg/mL | MIC50 (Sindbis): > 400 µg/mL | MIC50 (Coxsackie B4): > 400 µg/mL | MIC50 (Polio 1; Table 3, HeLa cells): > 400 µg/mL | MIC50 (Measles): > 100 µg/mL | MIC50 (Vesicular stomatitis; Table 3, HeLa, PRK cells): > 400 µg/mL | MIC50 (Vaccinia; Table 3, PRK cells): 0.7 to 3.0 µg/mL | MIC50 (Herpes simplex I (KOS); Table 3): 30 µg/mL (≈ 105 µM) | MIC50 (Herpes simplex 2 (G); Table 3): 30 µg/mL (≈ 105 µM) | MIC50 (Moloney sarcoma): > 200 µg/mL | MIC50 (HSV-1 (strain) McIntyre): 30 µg/mL (≈ 105 µM) | MIC50 (HSV-1 (strain) F): 30 µg/mL (≈ 105 µM) | MIC50 ([1]; Table 4, HSV-1 TK^- C1101, PRK cells): 7 µg/mL (≈ 24.5 µM) | MIC50 (HSV-2 (strain) 196): 15 µg/mL (≈ 52.6 µM) | MIC50 (HSV-2 (strain) Lyons): 15 µg/mL (≈ 52.6 µM) | Titer of HSV-1 ([2]; 24 h, 100 μg/ml): < 1.3 log10 PFU/ml | Titer of HSV-1 [2, 6]: 6.04 log10 PFU/ml | Titer of HSV-1 ([2]; 48 h, 100 μg/ml): 2.8 log10 PFU/ml | Titer of VV (vaccinia virus (VV); 1 h, 100 μg/ml): 1.6 log10 PFU/ml | Titer of VV (vaccinia virus (VV); 24 h, 100 μg/ml): 1.8 log10 PFU/ml | Titer of VV (vaccinia virus (VV); [6]): < 1.3 log10 PFU/ml | Titer of VV (vaccinia virus (VV); 48 h, 100 μg/ml): < 1.3 log10 PFU/ml | Titer of VV (vaccinia virus (VV); 72 h, 100 μg/ml): 1.5 log10 PFU/ml | MCC (minimal cytotoxic concentration) (PRK cells [4]): > 400 µg/mL | ID50 dUrd incorporation (PRK cells [5]; (3H-1',2')dUrd): ≥ 360 µg/mL | ID50 Leu incorporation (PRK cells [5]; (3H-4,5)Leu): > 400 µg/mL | ID50 Urd incorporation (PRK cells [5]; (3H-5)Urd): > 400 µg/mL | ID50 dThd incorporation (PRK cells [5]; (3H-methyl) dThd): ≥ 390 µg/mL
